Test results: US20060167083A1, “Therapeutic methods and compositions involving isoflav-3-ene and isoflavan structures” (priority 2002, published 2006)

What was measured:
Assay type in all cases: biochemical
[1] = target: T1, human topo I (Homo sapiens, UniProt P11387); test: Topo I-mediated plasmid relaxation assay; conditions: 10 μg/ml
T1 construct: purchased Topogen (Columbus, Ohio)
T1 sequence (P11387 1-765): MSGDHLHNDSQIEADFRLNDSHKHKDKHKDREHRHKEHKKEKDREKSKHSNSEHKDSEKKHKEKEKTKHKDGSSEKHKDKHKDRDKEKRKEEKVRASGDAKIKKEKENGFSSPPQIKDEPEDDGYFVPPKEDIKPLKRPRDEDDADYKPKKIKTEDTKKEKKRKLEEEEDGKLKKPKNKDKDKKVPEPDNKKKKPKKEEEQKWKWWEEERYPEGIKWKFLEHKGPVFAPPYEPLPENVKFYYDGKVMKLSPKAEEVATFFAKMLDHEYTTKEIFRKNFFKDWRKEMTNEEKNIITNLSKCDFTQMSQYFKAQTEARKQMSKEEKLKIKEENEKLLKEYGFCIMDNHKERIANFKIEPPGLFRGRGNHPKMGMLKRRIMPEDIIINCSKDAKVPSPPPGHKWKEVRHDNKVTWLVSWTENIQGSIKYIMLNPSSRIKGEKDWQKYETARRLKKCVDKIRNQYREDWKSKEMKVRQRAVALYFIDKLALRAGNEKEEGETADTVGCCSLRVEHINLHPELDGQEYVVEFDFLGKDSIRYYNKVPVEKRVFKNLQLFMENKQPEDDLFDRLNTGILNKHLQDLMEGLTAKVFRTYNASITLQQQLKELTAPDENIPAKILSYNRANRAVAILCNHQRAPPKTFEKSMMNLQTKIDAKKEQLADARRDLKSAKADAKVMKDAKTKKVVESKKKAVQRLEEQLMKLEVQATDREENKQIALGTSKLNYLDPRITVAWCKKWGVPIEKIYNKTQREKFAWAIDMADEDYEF
Method: Topo I activity was determined by converting supercoiled pUC8 DNA (SC) into its relaxed from (REL).
For the determination of topoisomerase (topo) I catalytic activity, pUC8 DNA was used as the substrate in a reaction volume of 20 μl containing the following: 10 mM Tris-HCl, pH 7.9, 1 mM EDTA, 150 mM NaCl, 0.1% BSA, 0.1 mM spermidine, 5% glycerol, and 2 units of purified human topo I. The inhibitor, when applicable, was added as indicated, and the reaction was initiated by the addition of the enzyme. Reactions were carried out at 37° C. for 30 min. Gel electrophoresis was performed at 4 V/cm for 5 h in Tris-borate-EDTA buffer. For the quantitative determination of topo I activity, photographic negatives were scanned. The area representing supercoiled DNA, migrating as a single band at the bottom of the gel, was determined. The concentrations of the inhibitor that prevented 50% of the supercoiled DNA from being converted into relaxed DNA (IC50 values) were determined by averaging the data from at least three experiments.

[2] = target: T1, human topo I; test: Topo I-mediated plasmid-nicking assay; conditions: 10 and 100 μg/ml (FIG. 4 lanes 5 and 6)
Method: Single-strand DNA breakage was determined by converting relaxed (REL) or supercoiled (SC) pUC8 DNA to the nicked form (NIC).
Under the electrophoretic conditions that were used in the experiment shown in FIG. 4, covalently closed circular (supercoiled or relaxed) plasmid DNA migrates on the bottom of the gel. In the presence of a topo I poison that stabilises the cleavable complex, and following denaturation and degradation of the enzyme with proteinase K/SDS, the resulting nicked DNA migrates on the top of the gel.
Topo I poisons enhance topo I-mediated pUC8 DNA cleavage under the reaction conditions provided by the supplier of the enzyme (Topogen, Inc.). Briefly, 20 μl of reaction mixtures contained 10 mM Tris-HCl, pH 7.5, 1 mM EDTA, 100 mM NaCl, 1 μl of the test agent (or solvent), 0.5 μg of pUC8, and 10 units of human topo I (added last). After a 30-min incubation at 37° C., SDS-proteinase K was added, and, following a 30-min incubation at 37° C., samples were extracted with CHCl3-isopropanol and electrophoresed on a 1% agarose gel containing 0.5 μg/ml ethidium bromide. Gels were photographed, and photographic negatives were scanned.

[3] = target: T2, human topo II (Homo sapiens, UniProt P11388); test: Topo II-mediated plasmid linearisation assay
T2 construct: purchased Topogen (Columbus, Ohio)
Method: FIG. 3 represents an assay for determining the effect of dehydroequol on double-stranded DNA cleavage. pRYG DNA was incubated with ten units of human topo II (lanes 2-6) in the absence (lane 1) or presence of 10, 30, or 100 μg/ml dehydroequol (lanes 2-4), or 30 μg/ml genistein (lane 5), or 10 μg/ml VP-16 (lane 6). Lane 7, linear pUC8 DNA marker. Double-strand DNA breakage was determined by converting relaxed (REL) or supercoiled (SC) pRYG DNA to the linear (LIN) form.
A linearisation assay was employed to determine if dehydroequol is a topo II poison. Double-strand breakage results in the appearance of linear DNA. […] This effect, which was evident at 10 μg/ml, peaked at 30 μg/ml.
Topo II poisons enhance topo II-mediated DNA cleavage and can be identified with the linearisation assay under the reaction conditions provided by the supplier of the enzyme (Topogen, Inc.). Briefly, 20-μl reaction mixtures contained 30 mM Tris-HCl, pH 7.6, 3 mM ATP, 15 mM β-mercaptoethanol, 8 mM MgCl2, 60 mM NaCl, 1 μl of the test agent (or solvent), 0.3 μg of pRYG, and 10 units of human topo II (added last). After a 15-min incubation at 37° C., SDS-proteinase K was added, and following a 15 min incubation at 37° C., samples were extracted with CHCl3-isopropanol and electrophoresis was performed on a 1% agarose gel containing ethidium bromide. Gels were photographed, and photographic negatives were scanned.

T2 sequence (P11388 whole entry): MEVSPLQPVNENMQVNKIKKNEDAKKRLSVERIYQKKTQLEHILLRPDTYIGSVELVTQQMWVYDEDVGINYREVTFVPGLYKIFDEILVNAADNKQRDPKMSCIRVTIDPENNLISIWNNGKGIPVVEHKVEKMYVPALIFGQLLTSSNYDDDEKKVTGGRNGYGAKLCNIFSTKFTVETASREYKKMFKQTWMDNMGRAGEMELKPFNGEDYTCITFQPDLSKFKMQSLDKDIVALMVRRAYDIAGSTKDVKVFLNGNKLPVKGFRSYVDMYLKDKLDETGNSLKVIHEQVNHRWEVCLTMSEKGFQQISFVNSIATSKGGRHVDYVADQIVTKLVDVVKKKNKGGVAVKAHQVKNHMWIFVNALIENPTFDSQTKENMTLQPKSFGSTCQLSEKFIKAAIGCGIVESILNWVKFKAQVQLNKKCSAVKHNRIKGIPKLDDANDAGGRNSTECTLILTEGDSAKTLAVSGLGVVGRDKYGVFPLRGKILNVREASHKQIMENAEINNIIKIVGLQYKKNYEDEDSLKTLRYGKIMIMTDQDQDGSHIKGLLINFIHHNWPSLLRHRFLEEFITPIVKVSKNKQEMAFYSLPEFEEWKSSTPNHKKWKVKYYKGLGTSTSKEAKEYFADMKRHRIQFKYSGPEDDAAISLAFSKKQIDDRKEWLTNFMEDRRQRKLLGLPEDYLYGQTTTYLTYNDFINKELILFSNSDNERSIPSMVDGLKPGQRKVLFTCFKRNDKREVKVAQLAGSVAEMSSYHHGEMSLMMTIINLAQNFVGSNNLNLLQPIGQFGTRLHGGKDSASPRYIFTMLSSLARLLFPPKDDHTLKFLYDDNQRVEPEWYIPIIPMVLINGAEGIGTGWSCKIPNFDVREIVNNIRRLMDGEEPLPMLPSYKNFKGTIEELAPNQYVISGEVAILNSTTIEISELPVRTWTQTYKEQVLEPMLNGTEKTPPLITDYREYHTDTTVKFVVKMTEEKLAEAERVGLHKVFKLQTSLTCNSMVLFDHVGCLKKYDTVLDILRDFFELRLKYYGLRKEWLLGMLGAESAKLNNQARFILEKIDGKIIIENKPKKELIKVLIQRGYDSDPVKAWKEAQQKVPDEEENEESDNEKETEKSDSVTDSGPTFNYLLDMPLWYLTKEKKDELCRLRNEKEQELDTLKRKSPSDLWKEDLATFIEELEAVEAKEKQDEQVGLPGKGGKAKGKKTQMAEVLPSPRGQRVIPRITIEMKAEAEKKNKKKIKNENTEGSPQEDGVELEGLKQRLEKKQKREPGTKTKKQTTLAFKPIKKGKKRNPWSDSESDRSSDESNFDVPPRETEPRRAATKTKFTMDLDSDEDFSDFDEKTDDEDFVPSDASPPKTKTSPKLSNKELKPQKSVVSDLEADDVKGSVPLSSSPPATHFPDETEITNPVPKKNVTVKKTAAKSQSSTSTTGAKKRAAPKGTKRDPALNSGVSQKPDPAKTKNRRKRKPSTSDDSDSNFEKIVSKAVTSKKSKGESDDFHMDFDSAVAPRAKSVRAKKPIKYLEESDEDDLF

| concentration producing detectable (comparable) topo II-mediated linear plasmid DNA [3] [µg/mL] | Structure (SMILES) | inhibition of topo I-catalysed relaxation of pUC8 DNA (positive control) [1] | topo I-mediated single-strand DNA breakage (nicked DNA), positive control [2] |
| --- | --- | --- | --- |
| – | CC[C@@]1(O)C(=O)OCc2c1cc1n(c2=O)Cc2cc3ccccc3nc2-1 [Camptothecin, reference compound] | prevents pUC8 DNA relaxation | produced single-strand DNA cleavage |
| 30 | O=c1c(-c2ccc(O)cc2)coc2cc(O)cc(O)c12 [genistein, reference compound] | – | – |
